Laboratory results reported in patent US20080206422A1, “Flavour Modulating Substances” (QUEST INTERNATIONAL SERVICES B.V., priority 2004, published 2008).

Columns and labels:
[1] = Tasting session of tap water solutions by a professional panel
Experimental: For a tasting session the following solutions were prepared: • 1) A solution of 0.025% of a composition as prepared in example 1 in tap water; • 2) A solution of 0.025% of a composition as prepared in example 1 and 0.3% NaCl in tap water; • 3) A solution of 0.025% of a composition as prepared in example 1, 0.3% NaCl and 0.03% mono sodium glutamate in tap water; • 4) A solution of 0.005% of a composition as prepared in example 2 in tap water; • 5) A solution of 0.005% of a composition as prepared in example 2 and 0.3% NaCl in tap water; and • 6) A solution of 0.005% of a composition as prepared in example 2, 0.3% NaCl and 0.03% mono sodium glutamate in tap water. • All samples were tasted by a professional panel.

[2] = Tasting of fish bouillon samples by a professional panel; conditions: sample 5: fish bouillon + 20 ppm of composition of example 2
Experimental: (§1) Six samples were prepared:
2. Fish bouillon+100 ppm of a composition as prepared in example 1;
5. Fish bouillon+20 ppm of a composition as prepared in example 2; and
(§2) All samples were tasted by a professional panel. There was general agreement about the differences in taste between the samples.

[3] = Tasting of Nam Pla (Thai fish sauce) samples by a professional panel; conditions: sample 6: Nam Pla + 20 ppm of composition of example 2
Experimental: as §1
3. Nam Pla* ex Unilever Thailand;
4. Nam Pla ex Unilever Thailand+100 ppm of a composition as prepared in example 1;
6. Nam Pla ex Unilever Thailand+20 ppm of a composition as prepared in example 2.
Nam Pla is a Thai fish sauce produced from a mixture of fish (anchovy), salt and sugar that is fermented for more than 6 months at 30-35° C. Protein hydrolysate and lipid oxidation products are formed through microbiological and enzymatic breakdown of the fish.
as §2

Compound: CC(O)C(=O)NCCc1ccc(O)cc1 (stereo not drawn) [example 2, N-lactoyl tyramine]
- taste description by professional panel ([1]; solution 4): 0.005% of composition of example 2 in tap water): a clean mouthfeel, body and thickness
- taste description by professional panel ([1]; solution 5): 0.005% of composition of example 2 and 0.3% NaCl in tap water): a longlasting effect, a clean mouthfeel, body and thickness and as bouillon-like
- taste description by professional panel ([1]; solution 6): 0.005% of composition of example 2, 0.3% NaCl and 0.03% mono sodium glutamate in tap water): a longlasting effect, a strong clean mouthfeel, body and thickness and as strong, natural and complex bouillon-like
- difference in taste compared with plain fish bouillon (sample 1) [2]: more body and mouthfeel, a stronger sweet taste impression and a more longlasting effect
- difference in taste compared with plain Nam Pla (sample 3) [3]: more body and mouthfeel, a stronger sweet taste impression and a more longlasting effect
- fermented fish character and perceived quality compared with plain Nam Pla (sample 3) [3]: a more rounded, natural fermented fish character and was perceived as a higher quality Nam Pla
